The molecules below were run on microfilariae of Dirofilaria immitis (assay: Dirofilaria immitis, Microfilaria (DiMF) Assay). Conditions: read-out: D. immitis activity level (IC50 or MED).
Format: cell-based
Protocol: Heartworm Screen Dirofilaria immitis (D. immitis)
Dirofilaria immitis, Microfilaria (DiMF) Assay.
Compounds were dissolved and serially diluted in DMSO. Aliquots were spotted to the empty wells of assay plates. Media and microfilariae of Dirofilaria immitis were added to each well to dilute the test compounds to the desired concentrations. Assay plates were incubated for approximately 72 hours, and the larvae in each well were observed microscopically for drug effect. Microfilariae in each well were assessed subjectively for survival or paralysis, and results were reported as Minimum Effective Dose (MED).
Active and selective (DiL4 vs. DiMF potency) example compounds were subsequently evaluated in heartworm positive dog studies to correlate the in vitro selectivity profile with in vivo effects on circulating microfilariae.

First: CC(=O)N(C)c1cccnc1Nc1nc(-c2cc(C(F)(F)F)c(OC(C)C)cn2)ns1 [Compound 187, N-(2-(3-(5-isopropoxy-4-(trifluoro-methyl)pyridin-2-yl)-1,2,4-thiadiazol-5-ylamino)pyridin-3-yl)-N-methylacetamide]
Second: CCOc1cnc(-c2nsc(Nc3ncccc3N(C)C(C)=O)n2)cc1C(F)(F)F [Compound 228, N-(2-(3-(5-ethoxy-4-(trifluoro-methyl)pyridin-2-yl)-1,2,4-thiadiazol-5-ylamino)pyridin-3-yl)-N-methyl-acetamide]
The IC50 of the first is lower: 200 to 500 nM for the first, 500 to 5000 nM for the second. The first is the more potent here.

CC(C)Oc1ccc(-c2nsc(Nc3ncccc3C(=O)N(C)C)n2)nc1 [Compound 188, 2-(3-(5-isoprop-oxypyridin-2-yl)-1,2,4-thiadiazol-5-ylamino)-N,N-dimethyl nicotinamide] and CC(C)Oc1ccc(-c2nsc(Nc3ncccc3C(=O)N(C)C3CC(F)(F)C3)n2)nc1 [Compound 191, N-(3,3-difluoro-cyclobutyl)-2-(3-(5-isoprop-oxypyridin-2-yl)-1,2,4-thiadiazol-5-ylamino)-N-methyl-nicotinamide] fall in the same range of IC50: 500 to 5000 nM for the first, 500 to 5000 nM for the second.

CC(C)Oc1ccc(-c2nsc(Nc3ncccc3C(=O)N3CCCC3)n2)nc1 [Compound 190, (2-(3-(5-isoprop-oxypyridin-2-yl)-1,2,4-thiadiazol-5-ylamino)pyridin-3-yl) (pyrrolidin-1-yl) methanone] and CC(=O)N(c1cccnc1Nc1nc(-c2ccc(OC(C)C)cn2)ns1)C(C)C [Compound 205, N-(2-(3-(5-isopropoxy-pyridin-2-yl)-1,2,4-thiadiazol-5-ylamino)pyridin-3-yl)-N-isopropy-lacetamide] fall in the same range of IC50: 500 to 5000 nM for the first, 500 to 5000 nM for the second.

First: CC(C)Oc1ccc(-c2nsc(Nc3ncc(C(=O)NC4CC(F)(F)C4)cc3C(C)C)n2)nc1 [Compound 195, N-(3,3-difluoro-cyclobutyl)-6-(3-(5-isoprop-oxypyridin-2-yl)-1,2,4-thiadiazol-5-ylamino)-5-isopropyl-nicotinamide]
Second: CC(=O)N(C)c1cc(C(F)(F)F)cnc1Nc1nc(-c2ccc(OC(C)C)cn2)ns1 [Compound 247, N-(2-(3-(5-isopropoxy-pyridin-2-yl)-1,2,4-thiadiazol-5-ylamino)-5-(trifluoro-methyl)pyridin-3-yl)-N-methylacetamide]
The IC50 of the first is higher: 500 to 5000 nM for the first, less than 200 nM for the second.

First: COC(=O)c1cc(-c2nsc(Nc3ncccc3C)n2)ncc1OC(C)C [Compound 196, methyl 5-isopropoxy-2-(5-(3-methylpyridin-2-ylamino)-1,2,4-thiadiazol-3-yl)isonicotinate]
Second: COC(=O)c1cc(-c2nsc(Nc3ncccc3C(C)C)n2)ncc1OC(C)C [Compound 197, methyl 5-isopropoxy-2-(5-(3-isopropylpyridin-2-ylamino)-1,2,4-thiadiazol-3-yl)isonicotinate]
The IC50 of the first is higher: 200 to 500 nM for the first, less than 200 nM for the second. The second is the more potent here.

First: CC(C)Oc1cnc(-c2nsc(Nc3ncccc3C(C)C)n2)cc1C(N)=O [Compound 198, 5-isopropoxy-2-(5-(3-isopropylpyridin-2-ylamino)-1,2,4-thiadiazol-3-yl)isonicotin-amide]
Second: CC(C)Oc1cnc(-c2nsc(Nc3ncccc3C(C)C)n2)cc1C#N [Compound 201, 5-isopropoxy-2-(5-(3-isopropyl-pyridin-2-ylamino)-1,2,4-thiadiazol-3-yl)isonicotino-nitrile]
The IC50 of the first is higher: 500 to 5000 nM for the first, less than 200 nM for the second. The second is the more potent here.

Cc1cccnc1Nc1nc(-c2cc(C#N)c(OC(C)C)cn2)ns1 [Compound 200, 5-isopropoxy-2-(5-(3-methylpyridin-2-ylamino)-1,2,4-thiadiazol-3-yl)isonicotino-nitrile] and Cc1cc(C#N)cnc1Nc1nc(-c2ccc(OC(C)C)cn2)ns1 [Compound 231, 6-(3-(5-isoprop-oxypyridin-2-yl)-1,2,4-thiadiazol-5-ylamino)-5-methyl-nicotinonitrile] fall in the same range of IC50: 200 to 500 nM for the first, 200 to 500 nM for the second.

First: CC(=O)N(C)c1cccnc1Nc1nc(-c2cc3c(cn2)N(C)CC3)ns1 [Compound 202, N-methyl-N-(2-(3-(1-methyl-2,3-dihydro-1H-pyrrolo[2,3-c]pyridin-5-yl)-1,2,4-thiadiazol-5-ylamino)pyridin-3-yl)acetamide]
Second: CC(=O)N(C)c1cccnc1Nc1nc(-c2cc3c(cn2)N(C(C)C)CC3)ns1 [Compound 206, N-(2-(3-(1-isopropyl-2,3-dihydro-1H-pyrrolo[2,3-c]pyridin-5-yl)-1,2,4-thiadiazol-5-ylamino)pyridin-3-yl)-N-methylacetamide]
The IC50 of the first is higher: 500 to 5000 nM for the first, less than 200 nM for the second. The second is the more potent here.

CC(=O)N(C)c1cccnc1Nc1nc(-c2ccc(OC3CCN(C(C)C)CC3(F)F)cn2)ns1 (stereo not drawn) [Compound 203, N-(2-(3-(5-(3,3-difluoro-1-isopropyl-piperidin-4-yloxy)pyridin-2-yl)-1,2,4-thiadiazol-5-ylamino)pyridin-3-yl)-N-methylacetamide] and CC(=O)N(C)c1cccnc1Nc1nc(-c2ccc(NC34CC(C3)C4)cn2)ns1 [Compound 207, N-(2-(3-(5-(bicyclo [1.1.1]pentan-1-ylamino)pyridin-2-yl)-1,2,4-thiadiazol-5-ylamino)pyridin-3-yl)-N-methylacetamide] fall in the same range of IC50: 500 to 5000 nM for the first, 500 to 5000 nM for the second.

O=C1CCCN1c1cccnc1Nc1nc(-c2ccc(NC34CC(C3)C4)cn2)ns1 [Compound 204, 1-(2-(3-(5-(bicyclo [1.1.1]pentan-1-ylamino)pyridin-2-yl)-1,2,4-thiadiazol-5-ylamino)pyridin-3-yl)pyrrolidin-2-one] and CC(=O)N(C)c1cccnc1Nc1nc(-c2cc(C)ccn2)ns1 [Compound 208, N-methyl-N-(2-(3-(4-methylpyridin-2-yl)-1,2,4-thiadiazol-5-ylamino)pyridin-3-yl)acetamide] fall in the same range of IC50: 500 to 5000 nM for the first, 500 to 5000 nM for the second.

COc1ccc(-c2nsc(Nc3ccc(C(F)(F)F)cn3)n2)nc1 [Compound 209, 3-(5-methoxy-pyridin-2-yl)-N-(5-(trifluoromethyl)pyridin-2-yl)-1,2,4-thiadiazol-5-amine] and COc1ccc(-c2nsc(Nc3ccc(OC(C)C)cn3)n2)nc1 [Compound 215, N-(5-isoprop-oxypyridin-2-yl)-3-(5-methoxy-pyridin-2-yl)-1,2,4-thiadiazol-5-amine] fall in the same range of IC50: 500 to 5000 nM for the first, 500 to 5000 nM for the second.

Compared with COc1cccnc1-c1nsc(Nc2cc(C(F)(F)F)c(C(C)C)cn2)n1 [Compound 210, N-(5-isopropyl-4-(trifluoromethyl)pyridin-2-yl)-3-(3-methoxy-pyridin-2-yl)-1,2,4-thiadiazol-5-amine], CC(C)Oc1cnc(-c2nsc(Nc3ncccc3C(F)(F)F)n2)cc1C(N)=O [Compound 220, 5-isopropoxy-2-(5-(3-(trifluoromethyl)pyridin-2-ylamino)-1,2,4-thiadiazol-3-yl)isonico-tinamide] is higher in IC50: 200 to 500 nM for the first, 500 to 5000 nM for the second.

First: FC(F)(F)c1ccc(Nc2nc(-c3cc(OC4CCCCC4)ccn3)ns2)nc1 [Compound 213, 3-(4-(cyclo-hexyloxy)pyridin-2-yl)-N-(5-(trifluoromethyl)pyridin-2-yl)-1,2,4-thiadiazol-5-amine]
Second: CC(C)Oc1cnc(-c2nsc(Nc3ncccc3C(F)(F)F)n2)cc1C(=O)N(C)C [Compound 218, 5-isopropoxy-N,N-dimethyl-2-(5-(3-(trifluoromethyl)pyridin-2-ylamino)-1,2,4-thiadiazol-3-yl)isonico-tinamide]
The IC50 of the first is lower: less than 200 nM for the first, 500 to 5000 nM for the second.

Compared with CC(=O)N(C)c1cccnc1Nc1nc(-c2cc(C(C)C)ccn2)ns1 [Compound 216, N-(2-(3-(4-iso-propylpyridin-2-yl)-1,2,4-thiadiazol-5-ylamino)pyridin-3-yl)-N-methyl-acetamide], CC(C)c1ccnc(-c2nsc(Nc3ncccc3N(C)C(=O)C3CC3)n2)c1 [Compound 217, N-(2-(3-(4-isopropylpyridin-2-yl)-1,2,4-thiadiazol-5-ylamino)pyridin-3-yl)-N-methylcyclo-propanecarbox-amide] is higher in IC50: 200 to 500 nM for the first, 500 to 5000 nM for the second.

CC(C)Oc1cnc(-c2nsc(Nc3ncc(C(C)C)cc3C(F)(F)F)n2)cc1C(=O)N(C)C [Compound 219, 5-isopropoxy-2-(5-(5-isopropyl-3-(trifluoromethyl)pyridin-2-ylamino)-1,2,4-thiadiazol-3-yl)-N,N-dimethyliso-nicotinamide] and CC(C)Oc1cnc(-c2nsc(Nc3ncc(C(C)C)cc3C(F)(F)F)n2)cc1C(N)=O [Compound 221, 5-isopropoxy-2-(5-(5-isopropyl-3-(trifluoromethyl)pyridin-2-ylamino)-1,2,4-thiadiazol-3-yl)iso-nicotinamide] fall in the same range of IC50: 200 to 500 nM for the first, 200 to 500 nM for the second.

CC(=O)N(C)c1cccnc1Nc1nc(-c2cc(C(C)C)c(C)cn2)ns1 [Compound 223, N-(2-(3-(4-isopropyl-5-methylpyridin-2-yl)-1,2,4-thiadiazol-5-ylamino)pyridin-3-yl)-N-methyl-acetamide] and Cc1ccnc(Nc2nc(-c3ncccc3C)ns2)c1 [Compound 238, 3-(3-methyl-pyridin-2-yl)-N-(4-methyl-pyridin-2-yl)-1,2,4-thiadiazol-5-amine] fall in the same range of IC50: 200 to 500 nM for the first, 200 to 500 nM for the second.

Compared with c1ccc(-c2ccnc(Nc3nc(-c4ccccn4)ns3)c2)cc1 [Compound 237, N-(4-phenyl-pyridin-2-yl)-3-(pyridin-2-yl)-1,2,4-thiadiazol-5-amine], c1ccc(-c2ccnc(Nc3nc(-c4ccccn4)no3)c2)cc1 [Compound 246, N-(4-phenyl-pyridin-2-yl)-3-(pyridin-2-yl)-1,2,4-oxadiazol-5-amine] is higher in IC50: 200 to 500 nM for the first, 500 to 5000 nM for the second. The first is the more potent here.

c1ccc(-c2ccnc(Nc3nnc(-c4ccccn4)[nH]3)c2)cc1 [Compound 241, 4-phenyl-N-(5-(pyridin-2-yl)-4H-1,2,4-triazol-3-yl) pyridin-2-amine] and Cc1ccnc(Nc2nnc(-c3ncccc3C)[nH]2)c1 [Compound 242, 4-methyl-N-(5-(3-methyl-pyridin-2-yl)-4H-1,2,4-triazol-3-yl)pyridin-2-amine] fall in the same range of IC50: 200 to 500 nM for the first, 200 to 500 nM for the second.
